Results reported in patent US20240385182A1, “MASKED FLUOROGENIC LIPID COMPOUNDS, LIPID PARTICLES COMPRISING THE SAME, AND METHODS OF USE THEREOF” (Rutgers, The State University of New Jersey, priority 2023, published 2024).

Tests used:
[1] = Photophysical characterization of probes and uncaged forms (relative fluorescence quantum yield, extinction coefficient, brightness); assay type: physicochemical
Method in brief: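 Relative fluorescence quantum yields of caged probes and uncaged forms, referenced to coumarin 343 (ΦF 0.63 in ethanol) for triazole-coumarins and fluorescein (ΦF 0.79 in ethanol) for triazole-fluoresceins. Measured in Tris 50 mM, pH 7.5; coumarin largely aryloxide (TEG-TC pKa 7.1±0.1 by UV-Vis).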

[2] = system: HeLa cells; test: Confocal imaging and colocalization in live HeLa cells; assay type: cell-based; settings: for fluorescence at 405/475 nm: LNPs
Protocol: FIGS. 9A-9E: confocal imaging of lipid environments targeted by ONOO^− in live HeLa cells. Cells were seeded into glass microscope dishes, incubated with LNPs (50 μM) and stained with organelle trackers and/or actin dye prior to imaging. LNPs obtained from a 47.5:47.5:5.0 molar ratio of DOTMA, DOPE, and DPPC-TC-ONOO^−. FIG. 9A: cells treated with LNPs, stimulated with IFN-γ/LPS/PMA. Time coarse images acquired upon PMA treatment. FIG. 9B: cells treated with LNPs and 1400 W. FIG. 9C: cells treated with LNPs, then with 1400 W and IFN-γ/LPS/PMA. FIGS. 9D-9E: quantitative colocalization study of cells treated with LNPs and stimulated with IFN-γ/LPS/PMA. Pearson's correlation coefficient (PCC) was calculated for quantitative assessment. Organelle trackers: ER-Tracker™, MitoTracker™, CellLight™ Golgi-RFP, LysoTracker™. Cell cytoskeleton was assessed with CellMask™ Deep Red Actin Tracking Stain. DPPC-TC channel: 405/475 nm. Scale bars=20 μm (FIGS. 9A-9D) or 5 μm (FIG. 9E). With the utility of DPPC-TC-ONOO^− proven in synthetic protocell membranes, incorporation into live HeLa and RAW 264.7 cells was sought, which are relevant to redox-induced stress and have well-recognized pathways for RNS and ROS production. Lipid nanoparticles (LNPs) (˜100 nm in diameter) was used to deliver DPPC-TC-ONOO− into cells. This method circumvented the limited solubility of DPPC-TC-ONOO− due to the relatively hydrophobic butanone-coumarin motif. LNPs were obtained via sonication from 1,2-di-O-octadecenyl-3-trimethylammonium propane (DOTMA), 1,2-dioleoyl-sn-glycero-3-phosphoethanolamine (DOPE), and DPPC-TC-ONOO− (47.5:47.5:5.0 molar ratio), which were hydrated with a 300 mM sucrose solution. DOTMA and DOPE were chosen as the carrier lipids due to their cationic/zwitterionic natures, which has been postulated to enhance uptake through the cell membrane. The impact of different LNP compositions and incubation times on the cellular incorporation of DPPC-TC-ONOO^− was assessed. […] Specifically, LNPs containing greater than 10 mol % DPPC-TC-ONOO− were considerably more heterogenous in size (up to […] observed, in contrast to ˜100 nm) and nonuniform in vesicle lamellarity. Those with less than 4 mol % DPPC-TC-ONOO− led to insufficient fluorescence signal. To balance these counteracting factors, 5 mol % DPPC-TC-ONOO− was used, with 47.5 mol % DOTMA and DOPE, each. In these initial assays, cells were incubated with LNPs for up to 15 hours to complete the uptake and intracellular localization of DPPC-TC-ONOO−. Shorter incubation times (3-to-5 hours) led to its uptake but not subcellular localization. […] However, high serum concentration in DMEM caused interference between LNPs and serum-protein, resulting in aggregate formation as observed by microscopy. To overcome this obstacle, LNPs (50 μM) were used in a mixture of 2/3 volumetric ratio of sucrose solution and Opti-MEM™, a reduced serum medium known to increase the efficiency of lipofection. […] For a physiologically relevant stress model, the standard stimulation condition involving IFN-γ/LPS/PMA was employed. Treatment of cells with IFN-γ/LPS leads to the endogenous production of nitric oxide and PMA provokes increased levels of superoxide. These two reactive species combine to form peroxynitrite, as described elsewhere herein. […] The intracellular redox selectivity of DPPC-TC-ONOO^− was also assessed using N-(3-(aminomethyl)benzyl)-acetamidine, known as 1400 W, which inhibits the production of NO· by irreversibly binding to iNOS. […] To determine whether DPPC-TC-ONOO^− localizes and functions at a specific subcellular compartment in HeLa, a comprehensive colocalization study was performed with dyes specific for lipid-rich and membrane-enclosed organelles, including the ER, mitochondrion, Golgi apparatus, and lysosome (FIGS. 9D-9E). In addition, actin stain was used to gain a visual insight into the cytoskeletal structure of the whole cell. […]

CCCCCCCCCCCCCCCC(=O)OCC(COP(=O)([O-])OCC[N+](C)(C)Cc1cn(-c2cc3ccc(OC(=O)Oc4ccc(CCC(=O)C(F)(F)F)cc4)cc3oc2=O)nn1)OC(=O)CCCCCCCCCCCCCCC (racemic) [DPPC-TC-ONOO^−]
Emmax [1]: 471.2 nm
Exmax [1]: 395.0 nm
Ext. Coeff. [1]: 2784 M⁻¹ cm⁻¹
signal in the DPPC-TC channel ([2]; 1400 W only or 1400 W and IFN-γ/LPS/PMA): no observable signal
Pearson's correlation coefficient (PCC) ([2]; DPPC-TC signal vs ER-Tracker Green): 0.938
fluorescence at 405/475 nm ([2]; no stimulation): no observable signal
fluorescence at 405/475 nm ([2]; stimulation with IFN-γ/LPS/PMA): substantial increase in fluorescence
colocalization correlation ([2]; dyes specific for Golgi, mitochondria, and lysosomes): less significant correlation
time point at which intracellular fluorescence was observable upon PMA addition ([2]; post IFN-γ/LPS stimulation, earliest possible image acquisition time): 3 min
